Reference: patent publication US12252555B2 (CHINA NATIONAL RESEARCH INSTITUTE OF FOOD & FERMENTATION …, priority 2018, dated 2025)
No end group written: not given here.

What was measured:
Assay type in all cases: biochemical
[1] = Identification of oxidation resistance by ABTS+ method (Trolox standard); parameters: Total antioxidant capacity: unit not given here; settings: for Total antioxidant capacity: ABTS+ method, sample 5 mg/mL, Trolox standard curve, 734 nm; for Increased multiple, compared with selenium-chelating pea oligopeptide: ratio of total antioxidant capacity
From the text: 9.2 Identification of Oxidation Resistance of Peptide Segment

[2] = Determination of capacity to scavenge OH free radicals; settings: positive control; FIG. 12
Description: (§1) [formula] 8.2 Determination of Capacity to Scavenge OH Free Radicals
Sample solutions in different concentrations are taken and evenly mixed with FeSO4 ([…]) and salicylic acid-anhydrous ethanol solution ([…]) in a volume ratio of 1:2:2, the reaction is started with 1 volume of H2O2 solution ([…]), reacting in a water bath at 37° C. for 1 h, and the absorbance is measured at 510 nm in ultraviolet-visible spectrum, and recorded as A2. Correspondingly, the H2O2 solution ([…]) is replaced with 1 volume of water, and the ratio of remaining reagents remains unchanged, reacting in a water bath at 37° C. for 1 h, and the absorbance is measured at 510 nm in ultraviolet-visible spectrum, and recorded as A20. The sample solution is replaced with distilled water, and the ratio of remaining reagents remains unchanged, reacting in a water bath at 37° C. for 1 h, and the absorbance is measured at 510 nm, and recorded as A02. Experiment of each group is repeated three times, and average values are obtained and standard deviations are calculated. The sodium selenite and the pea oligopeptide are used as raw material controls before chelation, and ascorbic acid is used as a positive control, the scavenging rate of the sample on OH free radicals is calculated according to the following formula:
(§2) [formula] 8.3 Determination of Reducing Capacity

[3] = Determination of reducing capacity (K3[Fe(CN)6]/FeCl3, absorbance at 700 nm); settings: absorbance at 700 nm about 1.6; FIG. 14
Description: as §2
Sample solutions in different concentrations are taken and evenly mixed with phosphate buffer (0.2 mol/L, pH 6.6) and K3[Fe(CN)6] solution with a mass concentration of 1% in a volume ratio of 1:1:1, stored in a water bath at 50° C. for 10 min, and quickly cooled with cold water. 1 volume of trichloroacetic acid solution with a mass concentration of 10% is added, shaken well quickly and thoroughly under a dark condition, and then 1 volume of reaction mixture is taken out, and added with 1 volume of distilled water and 0.2 volume of FeCl3 solution with a mass concentration of 0.1%, and after shaking well quickly and thoroughly under a dark condition, standing for 10 min, the absorbance is measured at 700 nm, and recorded as A3. The sodium selenite and the pea oligopeptide are used as raw material controls before chelation, and ascorbic acid is used as an overall control, the absorbance A3 is directly used as a parameter of the reducing capacity of the sample. Experiment of each group is repeated three times, and average values are obtained and standard deviations are calculated.

[4] = Determination of capacity to scavenge DPPH free radicals; settings: positive control; FIG. 10
Description: 8.1 Determination of Capacity to Scavenge DPPH Free Radicals
Samples in different concentrations are taken and mixed with DPPH-anhydrous ethanol solution ([…]) in a volume ratio of 1:1, and stored for 30 min under a dark condition, and the absorbance of the mixed solution is measured at 517 nm in ultraviolet-visible spectrum, and recorded as Ai. Correspondingly, sample solutions in different mass concentrations are evenly mixed with anhydrous ethanol solution in a volume ratio of 1:1, and stored for 30 min under a dark condition at room temperature, and the absorbance of the mixed solution is measured at 517 nm in ultraviolet-visible spectrum, and recorded as Aj. Distilled water is evenly mixed with DPPH-anhydrous ethanol solution ([…]) in a volume ratio of 1:1, and stored for 30 min under a dark condition at room temperature, and the absorbance is measured at 517 nm in ultraviolet-visible spectrum, and recorded as Ac. Experiment of each group is repeated three times, and average values are obtained and standard deviations are calculated. The sodium selenite and the pea oligopeptide are used as raw material controls before chelation, and ascorbic acid is used as a positive control, the scavenging rate of the sample on DPPH free radicals is calculated according to the following formula:
as §1

Row | Compound | Total antioxidant capacity [1] | Increased multiple, compared with selenium-chelating pea oligopeptide [1] | IC50 value of scavenging OH free radical [2] [µg/mL] | Required concentration for absorbance value about 1.6 (reducing capacity) [3] [µg/mL] | IC50 value of scavenging DPPH free radical [4] [µg/mL]
1 | Thr-Ser-Ser-Leu-Pro (TSSLP; listed as Pisum sativum) [standard synthetic peptide segment identified in the selenium-chelating pea oligopeptide] | 5.55 | 0.10 |  |  | 
2 | O=C1O[C@H]([C@@H](O)CO)C(O)=C1O [ascorbic acid] |  |  | 1024.87 ± 5.96 | 400 | 4.85 ± 0.02
3 | PPKIYP [standard synthetic peptide segment identified in the selenium-chelating pea oligopeptide] | 211.12 | 3.90 |  |  | 
4 | HQMPKP [standard synthetic peptide segment identified in the selenium-chelating pea oligopeptide] | −9.53 |  |  |  | 
5 | TGRGAP [standard synthetic peptide segment identified in the selenium-chelating pea oligopeptide] | 3.25 | 0.06 |  |  | 
